Literature values in patent US4130645A (priority 1978, dated 1978).

How the values were obtained:
[1] = test system: groundsel and chickweed; settings: in vivo; cited from earlier work
[2] = test system: crops; settings: in vivo; cited from earlier work

Compound: O=C(O)C1(O)c2ccccc2-c2ccc(Cl)cc21 (stereo not drawn) [2-chloro-9-fluorenol-9-carboxylic acid]
- weed control [1]: weed control is achieved
- selectivity [2]: very little selectivity
- susceptibility of most crops examined [2]: susceptible
